Key:
[1] = tested on: HL-60; assay: MTT assay, cell viability; type: cell-based; conditions: Homo sapiens; HL-60, AML, 72 hours; read-out: IC50 (μM, Mean ± SD)
Procedure: (§1) Cells were cultured in RPMI-1640 (RT-112, KMS-11, SNU-16, HT-29, HCT-116, NCI—H520, Hep3B, PLC/PRF/5, HL-60, MOLT-4) and DMEM (HepG2, MCF-7, MDA-MB-231) with 10% FBS (v/v) and Penicillin/Streptomycin (100 U/ml). FU-DDLS-1 cell line was maintained in DMEM:F12 medium with 10% FBS. LiSa-2 cell line was maintained in IMDM/RPMI-1640 in a 4:1 ratio supplemented with 10% FBS, 2 mmol/L L-glutamine, and 0.1 mg/mL gentamicin. Human umbilical vein endothelial cells (HUVECs) were grown to confluence on 1% collagen, and maintained in 90% Medium 199 with 25 U/ml heparin, 30 μg/ml endothelial cell growth supplement (ECGS) adjusted to contain 1.5 g/L sodium bicarbonate, 10% FBS and Penicillin/Streptomycin (100 U/ml) Cultures were maintained at 37° C. in a humidified atmosphere of 5% CO2/95% air.
(§2) Cells were seeded in 96-well plates (5,000 cells/well) and incubated overnight for attachment, and were then treated with indicated agents in 10% FBS-supplemented medium for 72 hours. The medium was replaced with MTT (0.5 mg/mL) at 37° C. for 1 hours. After removal of medium, the cells were lysed with 100 μL per well dimethyl sulfoxide (DMSO), and absorbance at 550 nm was measured with microplate reader. The relative cell viability (%) was expressed as a percentage relative to a DMSO control cells.

[2] = tested on: HT-29; assay: MTT assay, cell viability; type: cell-based; conditions: Homo sapiens; HT-29, Colorectal, 72 hours; read-out: IC50 (μM, Mean ± SD)
Procedure: as §1, §2

[3] = tested on: Hep3B; assay: MTT assay, cell viability; type: cell-based; conditions: 5 uM, 72 hours
Procedure: as §1, §2

[4] = tested on: MOLT-4; assay: MTT assay, cell viability; type: cell-based; conditions: Homo sapiens; MOLT-4, ALL, 72 hours; read-out: IC50 (μM, Mean ± SD)
Procedure: as §1, §2

[5] = tested on: PLC/PRF/5; assay: MTT assay, cell viability; type: cell-based; conditions: PLC5, 5 uM, 72 hours
Procedure: as §1, §2

[6] = tested on: RT-112; assay: MTT assay, cell viability; type: cell-based; conditions: 72 hours
Procedure: as §1, §2

[7] = tested on: SNU-16; assay: MTT assay, cell viability; type: cell-based; conditions: 72 hours
Procedure: as §1, §2

[8] = molecular target: T1, DCAMKL1 (Homo sapiens, UniProt O15075); assay: Kinase binding assay (Kd)
T1 construct: made in house; host or cells: E. coli BL21-derived host (T7 phage) or HEK-293
Procedure: (§3) Kinase assays. For most assays, kinase-tagged T7 phage strains were prepared in an E. coli host derived from the BL21 strain. E. coli were grown to log-phase and infected with T7 phage and incubated with shaking at 32° C. until lysis. The lysates were centrifuged and filtered to remove cell debris. The remaining kinases were produced in HEK-293 cells and subsequently tagged with DNA for qPCR detection. […] The liganded beads were blocked with excess biotin and washed with blocking buffer (SeaBlock (Pierce), 1% BSA, 0.05% Tween 20, 1 mM DTT) to remove unbound ligand and to reduce non-specific binding. […] All reactions were performed in polystyrene 96-well plates in a final volume of 0.135 ml. […] The kinase concentration in the eluates was measured by qPCR.
(§4) An 11-point 3-fold serial dilution of each test compound was prepared in 100% DMSO at 100× final test concentration and subsequently diluted to 1× in the assay (final DMSO concentration=1%). Most Kds were determined using a compound top concentration=30,000 nM.
(§5) Binding constants (Kds) were calculated with a standard dose-response curve using the Hill equation: […]
(§6) The Hill Slope was set to −1. Curves were fitted using a non-linear least square fit with the Levenberg-Marquardt algorithm.

[9] = molecular target: T2, EGFR (Homo sapiens, UniProt P00533); assay: Kinase binding assay (Kd)
T2 construct: made in house; host or cells: E. coli BL21-derived host (T7 phage) or HEK-293
Procedure: as §3, §4, §5, §6

[10] = molecular target: T3, ERK1 (Homo sapiens, UniProt P27361); assay: Kinase binding assay (Kd)
T3 construct: made in house; host or cells: E. coli BL21-derived host (T7 phage) for most kinases, HEK-293 for the rest
Procedure: as §3, §4, §5, §6

[11] = molecular target: T4, MET (Homo sapiens, UniProt P08581); assay: Kinase binding assay (Kd)
T4 construct: made in house; host or cells: E. coli BL21-derived host (T7 phage) for most kinases, HEK-293 for the rest
Procedure: as §3, §4, §5, §6

[12] = molecular target: T5, PIK3CA (Homo sapiens, UniProt P42336); assay: Kinase binding assay (Kd)
T5 construct: made in house; host or cells: E. coli BL21-derived host (T7 phage) for most kinases, HEK-293 for the rest
Procedure: as §3, §4, §5, §6

[13] = molecular target: T6, PIK3C2B (Homo sapiens, UniProt O00750); assay: Lipid kinase binding assay (Kd)
T6 construct: made in house; host or cells: E. coli BL21-derived host (T7 phage) or HEK-293
Procedure: as §3, §4, §5, §6

[14] = molecular target: T7, PIK3C2G (Homo sapiens, UniProt O75747); assay: Lipid kinase binding assay (Kd)
T7 construct: made in house; host or cells: E. coli BL21-derived host (T7 phage) or HEK-293
Procedure: as §3, §4, §5, §6

[15] = molecular target: T8, PIK3C3 (Homo sapiens, UniProt Q8NEB9); assay: Lipid kinase binding assay (Kd)
T8 construct: made in house; host or cells: E. coli BL21-derived host (T7 phage) or HEK-293
Procedure: as §3, §4, §5, §6

[16] = molecular target: T9, PIK3CB (Homo sapiens, UniProt P42338); assay: Lipid kinase binding assay (Kd)
T9 construct: made in house; host or cells: E. coli BL21-derived host (T7 phage) or HEK-293
Procedure: as §3, §4, §5, §6

[17] = molecular target: T10, PIK3CD (Homo sapiens, UniProt O00329); assay: Lipid kinase binding assay (Kd)
T10 construct: made in house; host or cells: E. coli BL21-derived host (T7 phage) or HEK-293
Procedure: as §3, §4, §5, §6

[18] = molecular target: T11, PIKFYVE (Homo sapiens, UniProt Q9Y2I7); assay: Lipid kinase binding assay (Kd)
T11 construct: made in house; host or cells: E. coli BL21-derived host (T7 phage) or HEK-293
Procedure: as §3, §4, §5, §6

[19] = molecular target: T12, PIP5K1A (Homo sapiens, UniProt Q99755); assay: Lipid kinase binding assay (Kd)
T12 construct: made in house; host or cells: E. coli BL21-derived host (T7 phage) or HEK-293
Procedure: as §3, §4, §5, §6

[20] = molecular target: T13, PIP5K1C (Homo sapiens, UniProt O60331); assay: Lipid kinase binding assay (Kd)
T13 construct: made in house; host or cells: E. coli BL21-derived host (T7 phage) or HEK-293
Procedure: as §3, §4, §5, §6

[21] = molecular target: T14, PIP5K2B (Homo sapiens, UniProt P78356); assay: Lipid kinase binding assay (Kd)
T14 construct: made in house; host or cells: E. coli BL21-derived host (T7 phage) or HEK-293
Procedure: as §3, §4, §5, §6

[22] = molecular target: T15, PIP5K2C (Homo sapiens, UniProt Q8TBX8); assay: Lipid kinase binding assay (Kd)
T15 construct: made in house; host or cells: E. coli BL21-derived host (T7 phage) or HEK-293
Procedure: as §3, §4, §5, §6

[23] = molecular target: T16, FGFR3(G697C) (Homo sapiens, UniProt P22607, G697C); assay: Kinase binding assay (Kd), mutant FGFR3
T16 construct: made in house; host or cells: E. coli BL21-derived host (T7 phage) or HEK-293
Procedure: as §3, §4, §5, §6
(§7) The compound and assay method are similar to those mentioned in Example 45.

[24] = molecular target: T17, FGFR3(K650E) (Homo sapiens, UniProt P22607, K650E); assay: Kinase binding assay (Kd), mutant FGFR3
T17 construct: made in house; host or cells: E. coli BL21-derived host (T7 phage) or HEK-293
Procedure: as §3, §4, §5, §6, §7

[25] = molecular target: T18, FGFR3(V555M) (Homo sapiens, UniProt P22607, V555M); assay: Kinase binding assay (Kd), mutant FGFR3
T18 construct: made in house; host or cells: E. coli BL21-derived host (T7 phage) or HEK-293
Procedure: as §3, §4, §5, §6, §7

T12 sequence (Q99755 whole entry): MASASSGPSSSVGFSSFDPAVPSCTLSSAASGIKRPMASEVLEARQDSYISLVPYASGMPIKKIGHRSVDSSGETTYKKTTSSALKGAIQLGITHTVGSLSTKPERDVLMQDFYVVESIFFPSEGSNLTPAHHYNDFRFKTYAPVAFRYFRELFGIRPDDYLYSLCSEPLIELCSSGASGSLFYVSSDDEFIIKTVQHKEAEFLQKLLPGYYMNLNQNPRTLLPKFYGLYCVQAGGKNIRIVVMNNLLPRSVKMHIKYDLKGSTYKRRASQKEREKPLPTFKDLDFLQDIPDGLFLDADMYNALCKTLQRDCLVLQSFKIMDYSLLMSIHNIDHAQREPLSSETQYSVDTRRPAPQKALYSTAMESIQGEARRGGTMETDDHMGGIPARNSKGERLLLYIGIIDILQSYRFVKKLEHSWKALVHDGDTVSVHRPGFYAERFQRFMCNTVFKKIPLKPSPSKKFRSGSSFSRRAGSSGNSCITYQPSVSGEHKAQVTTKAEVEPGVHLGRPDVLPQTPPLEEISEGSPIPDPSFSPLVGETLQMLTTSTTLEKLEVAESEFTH
T4 sequence (P08581 25-1390): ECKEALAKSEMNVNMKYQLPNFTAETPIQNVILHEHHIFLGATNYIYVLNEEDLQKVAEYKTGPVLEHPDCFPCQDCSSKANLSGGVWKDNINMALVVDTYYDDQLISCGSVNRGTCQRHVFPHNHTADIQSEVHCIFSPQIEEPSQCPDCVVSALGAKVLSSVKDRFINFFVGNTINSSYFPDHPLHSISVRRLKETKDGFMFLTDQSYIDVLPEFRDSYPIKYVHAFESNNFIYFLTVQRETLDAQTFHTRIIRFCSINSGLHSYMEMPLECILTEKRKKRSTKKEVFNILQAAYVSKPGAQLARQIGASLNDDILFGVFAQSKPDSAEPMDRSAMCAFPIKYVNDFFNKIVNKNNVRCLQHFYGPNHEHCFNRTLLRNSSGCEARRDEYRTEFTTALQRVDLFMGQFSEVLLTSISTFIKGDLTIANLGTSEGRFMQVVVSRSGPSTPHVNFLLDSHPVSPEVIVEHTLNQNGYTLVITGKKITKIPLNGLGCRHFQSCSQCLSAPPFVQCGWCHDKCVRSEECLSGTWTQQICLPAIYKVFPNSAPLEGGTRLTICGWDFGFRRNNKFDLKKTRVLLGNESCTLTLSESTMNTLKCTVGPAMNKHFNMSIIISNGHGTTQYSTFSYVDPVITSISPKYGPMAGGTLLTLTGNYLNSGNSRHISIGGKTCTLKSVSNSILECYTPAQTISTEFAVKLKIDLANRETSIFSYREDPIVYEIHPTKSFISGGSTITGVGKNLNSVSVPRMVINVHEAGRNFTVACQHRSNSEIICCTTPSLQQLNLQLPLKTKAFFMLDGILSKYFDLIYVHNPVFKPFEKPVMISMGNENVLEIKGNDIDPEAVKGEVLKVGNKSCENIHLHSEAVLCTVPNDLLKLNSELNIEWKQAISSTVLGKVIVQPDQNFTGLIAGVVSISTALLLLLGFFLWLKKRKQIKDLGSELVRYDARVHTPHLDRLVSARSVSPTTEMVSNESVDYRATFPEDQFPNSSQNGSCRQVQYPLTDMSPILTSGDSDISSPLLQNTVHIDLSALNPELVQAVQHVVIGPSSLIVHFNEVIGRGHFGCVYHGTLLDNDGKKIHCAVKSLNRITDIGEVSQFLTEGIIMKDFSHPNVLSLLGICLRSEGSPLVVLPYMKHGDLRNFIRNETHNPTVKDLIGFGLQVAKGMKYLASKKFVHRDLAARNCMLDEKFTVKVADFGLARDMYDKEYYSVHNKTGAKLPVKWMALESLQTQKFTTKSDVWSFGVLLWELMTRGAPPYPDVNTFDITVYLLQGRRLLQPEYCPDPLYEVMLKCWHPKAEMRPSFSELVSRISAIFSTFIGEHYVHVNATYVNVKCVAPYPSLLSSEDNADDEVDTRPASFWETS
T2 sequence (P00533 25-1210): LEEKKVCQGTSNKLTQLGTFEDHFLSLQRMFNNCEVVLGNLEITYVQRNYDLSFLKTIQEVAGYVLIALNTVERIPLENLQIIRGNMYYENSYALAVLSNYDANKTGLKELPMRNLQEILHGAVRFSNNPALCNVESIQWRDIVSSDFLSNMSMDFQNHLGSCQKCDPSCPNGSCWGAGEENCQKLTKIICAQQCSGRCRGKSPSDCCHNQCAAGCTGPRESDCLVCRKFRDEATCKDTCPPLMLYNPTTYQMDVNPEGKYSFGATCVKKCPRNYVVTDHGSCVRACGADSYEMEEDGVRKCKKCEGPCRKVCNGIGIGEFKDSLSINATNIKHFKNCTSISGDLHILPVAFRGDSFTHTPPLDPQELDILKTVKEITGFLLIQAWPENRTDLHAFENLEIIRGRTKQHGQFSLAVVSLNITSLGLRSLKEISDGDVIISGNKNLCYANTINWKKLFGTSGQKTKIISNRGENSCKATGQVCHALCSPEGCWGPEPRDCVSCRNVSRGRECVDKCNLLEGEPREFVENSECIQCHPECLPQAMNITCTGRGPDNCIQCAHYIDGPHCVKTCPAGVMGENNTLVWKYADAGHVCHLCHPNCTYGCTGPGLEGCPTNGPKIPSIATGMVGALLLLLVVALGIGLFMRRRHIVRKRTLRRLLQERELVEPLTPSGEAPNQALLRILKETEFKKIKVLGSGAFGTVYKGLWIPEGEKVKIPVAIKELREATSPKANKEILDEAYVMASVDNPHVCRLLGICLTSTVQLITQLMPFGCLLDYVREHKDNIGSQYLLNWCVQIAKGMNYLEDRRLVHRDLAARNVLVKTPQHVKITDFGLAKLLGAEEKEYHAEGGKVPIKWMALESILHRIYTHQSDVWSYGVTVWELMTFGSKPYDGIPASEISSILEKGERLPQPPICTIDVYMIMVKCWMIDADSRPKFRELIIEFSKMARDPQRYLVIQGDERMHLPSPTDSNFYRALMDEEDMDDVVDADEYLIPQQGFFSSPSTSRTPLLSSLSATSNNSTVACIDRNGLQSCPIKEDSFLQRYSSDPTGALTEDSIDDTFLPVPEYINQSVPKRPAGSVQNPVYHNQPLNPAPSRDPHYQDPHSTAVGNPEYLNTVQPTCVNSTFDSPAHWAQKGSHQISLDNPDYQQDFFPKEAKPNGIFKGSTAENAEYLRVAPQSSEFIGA
T16 sequence (P22607 23-806 G697C): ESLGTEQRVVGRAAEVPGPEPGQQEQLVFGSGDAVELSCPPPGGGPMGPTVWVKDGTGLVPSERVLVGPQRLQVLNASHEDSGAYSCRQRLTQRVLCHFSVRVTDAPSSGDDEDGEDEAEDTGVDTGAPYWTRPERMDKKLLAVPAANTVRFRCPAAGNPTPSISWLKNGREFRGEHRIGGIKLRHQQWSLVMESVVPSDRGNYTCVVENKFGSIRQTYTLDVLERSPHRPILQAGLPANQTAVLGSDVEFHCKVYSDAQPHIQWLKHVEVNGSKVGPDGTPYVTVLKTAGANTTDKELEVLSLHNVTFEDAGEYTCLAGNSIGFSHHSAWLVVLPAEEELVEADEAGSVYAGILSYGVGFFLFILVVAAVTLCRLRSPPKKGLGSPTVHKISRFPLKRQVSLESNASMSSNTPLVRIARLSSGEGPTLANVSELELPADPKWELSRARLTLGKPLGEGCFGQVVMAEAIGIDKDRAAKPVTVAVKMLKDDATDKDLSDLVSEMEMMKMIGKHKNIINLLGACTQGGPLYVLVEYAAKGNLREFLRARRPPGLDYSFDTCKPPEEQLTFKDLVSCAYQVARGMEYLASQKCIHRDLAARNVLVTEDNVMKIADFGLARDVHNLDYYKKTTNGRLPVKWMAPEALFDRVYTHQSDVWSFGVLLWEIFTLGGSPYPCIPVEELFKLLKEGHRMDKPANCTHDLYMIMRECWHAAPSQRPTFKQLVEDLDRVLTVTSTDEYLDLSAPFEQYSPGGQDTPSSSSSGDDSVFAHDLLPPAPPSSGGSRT
T13 sequence (O60331 whole entry): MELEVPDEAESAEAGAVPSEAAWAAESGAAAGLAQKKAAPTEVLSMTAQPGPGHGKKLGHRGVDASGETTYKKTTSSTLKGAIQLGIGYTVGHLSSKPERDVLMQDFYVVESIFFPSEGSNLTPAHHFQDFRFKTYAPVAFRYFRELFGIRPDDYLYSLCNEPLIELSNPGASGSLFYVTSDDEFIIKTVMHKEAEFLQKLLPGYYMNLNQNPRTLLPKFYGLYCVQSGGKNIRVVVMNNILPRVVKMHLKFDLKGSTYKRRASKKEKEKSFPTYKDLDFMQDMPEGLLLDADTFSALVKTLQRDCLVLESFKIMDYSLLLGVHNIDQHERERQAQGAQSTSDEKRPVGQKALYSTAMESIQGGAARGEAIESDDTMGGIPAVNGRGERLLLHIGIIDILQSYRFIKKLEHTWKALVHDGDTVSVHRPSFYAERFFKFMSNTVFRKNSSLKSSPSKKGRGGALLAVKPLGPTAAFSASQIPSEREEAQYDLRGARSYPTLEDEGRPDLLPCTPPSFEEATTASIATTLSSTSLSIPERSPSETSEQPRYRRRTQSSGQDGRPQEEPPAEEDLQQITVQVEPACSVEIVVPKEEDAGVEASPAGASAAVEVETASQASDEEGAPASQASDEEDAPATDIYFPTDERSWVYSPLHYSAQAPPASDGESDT
T17 sequence (P22607 23-806 K650E): as the sequence (P22607 23-806 G697C) above, with K628E, C675G counted along it
T15 sequence (Q8TBX8 whole entry): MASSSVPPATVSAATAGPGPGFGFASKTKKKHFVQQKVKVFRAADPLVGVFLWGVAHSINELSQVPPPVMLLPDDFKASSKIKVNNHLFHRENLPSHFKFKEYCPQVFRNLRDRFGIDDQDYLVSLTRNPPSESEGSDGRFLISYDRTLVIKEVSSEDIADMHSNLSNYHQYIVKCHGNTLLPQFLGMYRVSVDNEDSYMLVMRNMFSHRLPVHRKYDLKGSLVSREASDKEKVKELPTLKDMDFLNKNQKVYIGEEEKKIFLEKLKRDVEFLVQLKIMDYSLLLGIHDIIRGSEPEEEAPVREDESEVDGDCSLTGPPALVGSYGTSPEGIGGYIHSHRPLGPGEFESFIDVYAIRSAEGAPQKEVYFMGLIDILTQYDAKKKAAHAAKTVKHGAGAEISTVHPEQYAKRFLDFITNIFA
T18 sequence (P22607 23-806 V555M): as the sequence (P22607 23-806 G697C) above, with V533M, C675G counted along it

IC50 [1]: 4.72 ± 1.46 µM
IC50 [2]: 2.49 ± 0.29 µM
IC50 [4]: 3.7 ± 0.2 µM
Kd [8]: > 10 µM
Kd [9]: > 10 µM
Kd [10]: > 10 µM
Kd [11]: > 10 µM
Kd [12]: > 10 µM
Kd [13]: 1000 nM
Kd [14]: > 10 µM
Kd [15]: 0.53 nM
Kd [16]: > 10 µM
Kd [17]: > 10 µM
Kd [18]: 2600 nM
Kd [19]: > 10 µM
Kd [20]: > 10 µM
Kd [21]: > 10 µM
Kd [22]: > 10 µM
Kd [23]: 390 nM
Kd [24]: 240 nM
Kd [25]: > 10 µM
Structure (SMILES): CCN1CCN(c2ccc(Nc3ncnc(N(C)C(=O)Nc4c(Cl)c(OC)c(Cl)c(OC)c4Cl)n3)cc2)CC1 [MPT0L145, 1-(4-((4-(4-ethylpiperazin-1-yl)phenyl)amino)-1,3,5-triazin-2-yl)-1-methyl-3-(2,4,6-trichloro-3,5-dimethoxyphenyl)urea]
Viability (% of control cells) Hep3B (5 uM) Mean [3]: 66.2 % of control cells
Viability (% of control cells) PLC5 (5 uM) Mean [5]: 20.6 % of control cells
Viability (% of control cells) RT-112 (5 uM) Mean ([6]; RT-112, 5 uM): 33.4 % of control cells
Viability (% of control cells) RT-112 (10 uM) Mean ([6]; RT-112, 10 uM): 8.5 % of control cells
Viability (% of control cells) SNU-16 (5 uM) Mean [7]: 36.9 % of control cells

Reference: patent US10624897B2, “Chlorobenzene substituted azaaryl compounds” (TAIPEI MEDICAL UNIVERSITY, priority 2015, dated 2020)
